Test results reported in patent publication US20150175644A1, “MANNOSE DERIVATIVES AS ANTAGONISTS OF BACTERIAL ADHESION” (UNIVERSITY OF BASEL, priority 2009, published 2015).

Experiments:
E. coli (strain RS 218) = test: Preliminary clotting assay (E. coli-mediated clotting of C. albicans cells); type: cell-based; details: minimal concentration that prevents clotting of C. albicans cells by E. coli RS 218; triplicate
Method: Overnight cultures of C. albicans (strain ATCC 60193) and E. coli (strain RS 218) are prepared by suspending colony material from agar plates in 10 ml trypticase soy broth (TSB) each and incubated for 16-18 h at 37° C., the culture of E. coli without shaking, but the culture of C. albicans with agitation on a horizontal shaker at 200 rpm. The cells of 2 ml of each culture are washed twice with 1 ml phosphate buffered saline (PBS) by centrifugation (10 min at 2500×g), discarding the supernatant and re-suspension of the cell pellet in fresh PBS. After the last washing step, the optical density at 600 nm is measured and adjusted to 5.0 for C. albicans (corresponding to approx. 5×10^7 viable cells/ml) and to 3.0 for E. coli (corresponding to approx. 5×10^9 viable cells/ml). […] Each test well is supplied with 33 μl PBS or the test solution of the desired concentration, and 33 μl of E. coli suspension is added and mixed by slightly tapping the plate. After 5 min 33 μl of C. albicans suspension is added to give a total volume of 100 μl per well. As a negative clumping control, one well is left without addition of E. coli. The plate is incubated for 20 min at 37° C. on a horizontal shaker at 150 rpm and the cells are allowed to settle for 10 min at r.t. before the wells are inspected with the help of a magnifier for visual clumps. For each substance the minimal concentration that prevents clotting of C. albicans cells is noted. Each experiment is performed in triplicate.

E. coli strain UTI89 = test: Aggregometer assay (disaggregation of E. coli UTI89 from guinea pig erythrocytes); type: cell-based; details: relative to heptyl α-D-mannopyranoside (rIC50=1)
Method: In analogy to N. Firon, I. Ofek, N. Sharon, Biochem. Biophys. Res. Comm. 1982, 105, 1426-1432, the following assay is conducted: E. coli strain UTI89 is statically incubated in Luria-Bertani broth for 24 h, washed twice and adjusted to an optical density at 600 nm (OD600) of 4.0. The percentage of aggregation of UTI89 to guinea pig erythrocytes (GPE) is quantitatively measured using an APACT 4004 aggregometer (Endotell AG, Allschwil, Switzerland) at 740 nm, 37° C. under stirring at 1000 rpm. For calibration, first the protein poor plasma (PPP) is measured using PBS 1% and set as 100% aggregation, followed by the protein rich plasma (PRP) using GPE at an OD600 of 4.0, set as 0% aggregation. After calibration, the measurement is initiated using 250 μL GPE and 50 μL bacterial suspension. Following the aggregation phase of 600 s, 25 μL of the antagonists at different concentrations are added and disaggregation is monitored over 1400 s. The FimH-deleted mutant of E. coli UTI89 is used to proof FimH-specific GPE agglutination. For evaluation, the area under the disaggregation curve (AUC) is calculated and compared to the reference, heptyl α-D-mannopyranoside (see Table 2). The activities are reported as rel. IC50 (rIC50) with heptyl α-D-mannopyranoside as reference compound (rIC50=1).

[1] = system: GFP tagged E. coli strain UTI89; test: Flow cytometry inhibition assay (adherence of GFP tagged UTI89 to bladder cell line 5637); type: cell-based; details: for IC50: Escherichia coli; for rIC50: ratio of IC50 to IC50 of reference HM, cell line 5637
Method: The GFP tagged E. coli strain UTI89 is statically incubated in Luria-Bertani broth for 24 h, washed twice and adjusted to an optical density at 600 nm (OD600) between 2.0 and 3.0. The human epithelial bladder carcinoma cell line 5637 was grown in RPMI 1640 medium, supplemented with 10% fetal calf serum (FCS), 100 U/ml penicillin and 100 μg/ml streptomycin at 37° C., 5% CO2 in 24-well plates. Cells were infected with 200 μl bacterial suspension (multiplicity of infection of 1:50 (cell:bacteria)), premixed with 25 μl of antagonists at different concentrations. To homogenize the infection, plates were centrifuged at room temperature for 3 min at 600 g. After an incubation of 1.5 h at 37° C., infected cells were washed four times with RPMI 1640 medium and suspended in ice-cold PBS for 5-20 min. Samples were measured with a CyAn ADP flow cytometer (Becton Dickinson, San Jose, Calif.) and analyzed by gating on the eukaryotic cells based on forward (FSC) and side scatter (SSC). A total of 10^4 cells were measured per sample. Data were acquired in a linear mode for the SSC and logarithmic mode for FSC and the green fluorescent channel FL1-H (e.g. GFP). The mean fluorescence intensity (MFI) of FL1-H was counted as a surrogate marker for the adherence of bacteria. Quantification of adhesion was evaluated with the FlowJo software 9.0.1 (Tree Star, Inc., Ashland, Oreg., USA). IC50 values were determined by plotting the concentration of the antagonist in a logarithmic mode versus the MFI and by fitting the curve with the prism software (GraphPad, inhibition curve, variable slope). The relative IC50 (rIC50) is the ratio of the IC50 of the test compound to the IC50 of the reference compound HM (n-heptyl α-D-mannopyranoside.

[2] = In vivo pharmacokinetics, single dose, urine and plasma sampling; set-up: species or system mouse; details: single i.v. application of 50 mg/kg, applied antagonist detected
Method: The aim is the identification of FimH antagonists suitable for intravenous (i.v.) or preferably peroral (p.o.) applications. Before infection studies in a mouse disease model could be performed, the in vivo pharmacokinetic parameters (Cmax, AUC) had to be determined, to ensure the antagonists availability in the target organ (bladder). Single-dose pharmacokinetic studies were performed by i.v. and p.o. application of the FimH antagonists at a concentration of 50 mg/kg followed by urine and plasma sampling. […] Antagonists were applied i.v. by injection into the tail vein and p.o. using a gavage followed by blood and urine sampling (10 μL) after 6 min, 30 min, 1 h, 2 h, 4 h, 6 h, 8 h and 24 h. Before analysis, proteins in blood and urine samples were precipitated using methanol and centrifuged for 11 min at 13,000 rpm. The supernatant was transferred into a 96-well plate and analyzed by LC-MS.

Structure (SMILES) | Average conc. to prevent clotting (E. coli (strain RS 218)) [µM] | rIC50 (measured in the aggregometer assay) (E. coli strain UTI89) | IC50 [1] [nM] | rIC50 [1] | AUC0-24 i.v. ([2]; plasma) [µg·h/mL] | AUC0-24 i.v. ([2]; urine) [µg·h/mL]
CCCCCCCO[C@H]1O[C@H](CO)[C@@H](O)[C@H](O)[C@@H]1O [HM, heptyl α-D-mannopyranoside, reference compound] | 42 | 1 | 3900 ± 1600 | 1 | 34.3 ± 33.3 | 2469.3 ± 636.4
O=[N+]([O-])c1ccc2c(ccn2-c2ccc(O[C@H]3O[C@H](CO)[C@@H](O)[C@H](O)[C@@H]3O)c(F)c2)c1 [Compound 34, 2-Fluoro-4-(5-nitroindol-1-yl)phenyl α-D-mannopyranoside] | 0.833 |  |  |  |  | 
OC[C@H]1O[C@H](Oc2ccc(-n3ccc4ccccc43)cc2F)[C@@H](O)[C@@H](O)[C@@H]1O [Compound 32, 2-Fluoro-4-(indol-1-yl)phenyl α-D-mannopyranoside] | 5.556 |  |  |  |  | 
OC[C@H]1O[C@H](Oc2ccc(-n3ccc4ccccc43)cc2Cl)[C@@H](O)[C@@H](O)[C@@H]1O [Compound 29a, 2-Chloro-4-(indol-1-yl)phenyl α-D-mannopyranoside] | 1.111 |  |  |  |  | 
O=[N+]([O-])c1ccc2c(ccn2-c2ccc(O[C@H]3O[C@H](CO)[C@@H](O)[C@H](O)[C@@H]3O)c(Cl)c2)c1 [Compound 29b, 2-Chloro-4-(5-nitroindol-1-yl)phenyl α-D-mannopyranoside] | 0.556 |  | 590 ± 45 | 0.15 |  | 
